Experiments:
[1] = biological target: T1, Nuclear receptor ROR-gamma (Homo sapiens, UniProt P51449); assay: Inverse agonist activity at human ROR-gamma1 expressed in HEK293 cells after 16 hrs by luciferase reporter gene assay; assay type: cell-based
T1 sequence (P51449 whole entry): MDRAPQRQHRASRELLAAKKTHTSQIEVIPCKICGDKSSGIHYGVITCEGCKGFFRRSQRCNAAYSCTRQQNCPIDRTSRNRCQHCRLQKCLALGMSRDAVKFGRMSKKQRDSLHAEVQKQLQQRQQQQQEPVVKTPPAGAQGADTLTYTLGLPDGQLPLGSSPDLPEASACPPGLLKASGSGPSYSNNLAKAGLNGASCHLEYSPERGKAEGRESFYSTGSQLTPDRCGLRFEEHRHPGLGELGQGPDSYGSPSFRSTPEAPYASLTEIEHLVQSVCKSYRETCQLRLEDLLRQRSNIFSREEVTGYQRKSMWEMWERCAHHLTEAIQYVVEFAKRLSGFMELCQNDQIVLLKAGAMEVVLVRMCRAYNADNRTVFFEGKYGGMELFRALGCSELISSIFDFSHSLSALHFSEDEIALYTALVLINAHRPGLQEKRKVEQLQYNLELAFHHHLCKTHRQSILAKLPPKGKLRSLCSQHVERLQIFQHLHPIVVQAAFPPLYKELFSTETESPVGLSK

[2] = biological target: T2, Nuclear receptor ROR-alpha (Homo sapiens, UniProt P35398); assay: Inverse agonist activity at human ROR-alpha1 expressed in HEK293 cells after 16 hrs by luciferase reporter gene assay; assay type: cell-based
T2 sequence (P35398 whole entry): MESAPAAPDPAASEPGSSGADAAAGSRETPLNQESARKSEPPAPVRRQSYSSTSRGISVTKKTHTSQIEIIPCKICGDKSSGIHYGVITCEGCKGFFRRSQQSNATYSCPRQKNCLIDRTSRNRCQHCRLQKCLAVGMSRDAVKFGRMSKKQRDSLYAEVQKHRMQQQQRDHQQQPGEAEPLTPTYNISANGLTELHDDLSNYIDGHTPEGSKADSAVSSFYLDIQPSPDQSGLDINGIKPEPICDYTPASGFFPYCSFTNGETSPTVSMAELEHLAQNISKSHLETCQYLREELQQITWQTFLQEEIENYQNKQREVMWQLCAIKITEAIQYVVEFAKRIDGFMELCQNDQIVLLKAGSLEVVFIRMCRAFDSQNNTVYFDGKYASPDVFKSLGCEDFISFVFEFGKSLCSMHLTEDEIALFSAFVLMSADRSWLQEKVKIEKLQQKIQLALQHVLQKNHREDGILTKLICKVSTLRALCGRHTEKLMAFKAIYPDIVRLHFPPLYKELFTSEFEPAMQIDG

[3] = biological target: T3, Nuclear receptor ROR-beta (Homo sapiens, UniProt Q92753); assay: Inverse agonist activity at human ROR-beta expressed in HEK293 cells after 16 hrs by luciferase reporter gene assay; assay type: cell-based
T3 sequence (Q92753 whole entry): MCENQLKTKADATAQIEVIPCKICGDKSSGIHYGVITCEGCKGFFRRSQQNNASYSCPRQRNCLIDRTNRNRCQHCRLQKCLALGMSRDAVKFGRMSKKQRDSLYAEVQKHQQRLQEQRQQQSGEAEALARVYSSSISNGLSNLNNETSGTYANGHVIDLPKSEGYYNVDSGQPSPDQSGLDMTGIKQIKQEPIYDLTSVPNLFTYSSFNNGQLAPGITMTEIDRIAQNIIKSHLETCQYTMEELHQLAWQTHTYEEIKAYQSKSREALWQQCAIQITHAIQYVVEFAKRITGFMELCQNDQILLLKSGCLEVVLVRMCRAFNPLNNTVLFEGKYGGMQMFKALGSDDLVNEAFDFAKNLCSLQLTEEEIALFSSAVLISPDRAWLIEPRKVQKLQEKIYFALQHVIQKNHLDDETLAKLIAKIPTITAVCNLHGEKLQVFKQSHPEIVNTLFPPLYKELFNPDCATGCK

HEK293 = assay: Cytotoxicity against HEK293 cells; assay type: cell-based; conditions: human
[4] = biological target: T4, Oxysterols receptor LXR-alpha (Homo sapiens, UniProt Q13133); assay: Antagonist activity at human LXR-alpha expressed in HEK293 cells assessed as inhibition of T0901317-induced effect after 16 hrs by luciferase reporter gene assay; assay type: cell-based
T4 sequence (Q13133 whole entry): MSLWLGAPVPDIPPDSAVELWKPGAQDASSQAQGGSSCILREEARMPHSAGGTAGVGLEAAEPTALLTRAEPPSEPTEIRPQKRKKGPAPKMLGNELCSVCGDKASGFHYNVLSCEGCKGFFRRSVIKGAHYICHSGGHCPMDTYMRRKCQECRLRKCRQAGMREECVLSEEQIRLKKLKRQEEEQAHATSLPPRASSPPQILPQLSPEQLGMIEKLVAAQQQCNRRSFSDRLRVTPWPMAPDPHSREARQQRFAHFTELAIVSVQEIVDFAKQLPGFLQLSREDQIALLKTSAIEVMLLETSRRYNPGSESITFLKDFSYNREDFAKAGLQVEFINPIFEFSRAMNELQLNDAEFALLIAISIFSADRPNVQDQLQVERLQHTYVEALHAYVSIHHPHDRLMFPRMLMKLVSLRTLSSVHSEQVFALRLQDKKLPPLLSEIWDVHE

[5] = biological target: T5, Oxysterols receptor LXR-beta (Homo sapiens, UniProt P55055); assay: Antagonist activity at human LXR-beta expressed in HEK293 cells assessed as inhibition of T0901317-induced effect after 16 hrs by luciferase reporter gene assay; assay type: cell-based
T5 sequence (P55055 whole entry): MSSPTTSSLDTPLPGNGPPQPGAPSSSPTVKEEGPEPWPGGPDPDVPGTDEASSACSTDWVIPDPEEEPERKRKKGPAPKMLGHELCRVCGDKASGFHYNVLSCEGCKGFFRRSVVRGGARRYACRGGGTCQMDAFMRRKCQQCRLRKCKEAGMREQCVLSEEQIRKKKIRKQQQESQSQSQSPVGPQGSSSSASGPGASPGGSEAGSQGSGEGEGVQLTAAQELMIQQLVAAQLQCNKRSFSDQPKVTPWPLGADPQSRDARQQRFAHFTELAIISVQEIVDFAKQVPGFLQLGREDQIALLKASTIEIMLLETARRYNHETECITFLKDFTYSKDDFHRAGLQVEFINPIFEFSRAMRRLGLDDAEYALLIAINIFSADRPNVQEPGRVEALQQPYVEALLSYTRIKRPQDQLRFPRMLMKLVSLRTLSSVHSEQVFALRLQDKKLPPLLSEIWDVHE

[6] = biological target: T4, Oxysterols receptor LXR-alpha; assay: Agonist activity at human LXR-alpha expressed in HEK293 cells after 16 hrs by luciferase reporter gene assay
[7] = biological target: T5, Oxysterols receptor LXR-beta; assay: Agonist activity at human LXR-beta expressed in HEK293 cells after 16 hrs by luciferase reporter gene assay
[8] = biological target: T5, Oxysterols receptor LXR-beta; assay: Antagonist activity at human LXR-beta expressed in HEK293 cells after 16 hrs by luciferase reporter gene assay; assay type: cell-based
[9] = biological target: T4, Oxysterols receptor LXR-alpha; assay: Antagonist activity at human LXR-alpha expressed in HEK293 cells after 16 hrs by luciferase reporter gene assay; assay type: cell-based

Row | Structure (SMILES) | IC50 ([1]; read-out: IC50) | IC50 ([2]; read-out: IC50) | IC50 ([3]; read-out: IC50) | further results
1 | CCCCn1c(=O)c2ccccc2c2cc(CO)ccc21 | > 20 µM | > 20 µM | > 20 µM | 
2 | CCCCn1c(=O)c2ccccc2c2cc(C(C)(C)C)ccc21 | 10.4 µM | 11.8 µM | 12.8 µM | 
3 | CCCCn1c(=O)c2ccccc2c2cc(C(O)(C(F)(F)F)C(F)(F)F)ccc21 | 3.9 µM | 9.8 µM | 6.5 µM | 
4 | CCCCCCn1c(=O)c2ccccc2c2cc(C(O)(C(F)(F)F)C(F)(F)F)ccc21 | 4.7 µM | 7.6 µM | 5.4 µM | 
5 | CCCCn1c(=O)c2ccccc2c2cc(CC)ccc21 | 9.2 µM | 9 µM | 7.9 µM | 
6 | CCCCn1c(=O)c2ccccc2c2ccccc21 | 14.5 µM | 10.2 µM | 13.4 µM | 
7 | CCCCn1c(=O)c2ccccc2c2cc(C)ccc21 | 16.8 µM | 17.6 µM | 17.1 µM | 
8 | CCCCCCCCCn1c(=O)c2ccccc2c2cc(C(O)(C(F)(F)F)C(F)(F)F)ccc21 | > 20 µM | > 20 µM | > 20 µM | 
9 | CCn1c(=O)c2ccccc2c2cc(C(O)(C(F)(F)F)C(F)(F)F)ccc21 | > 20 µM | > 20 µM | > 20 µM | 
10 | CCCCn1c(=O)c2c(OC)cccc2c2cc(C(O)(C(F)(F)F)C(F)(F)F)ccc21 |  |  |  | Activity (HEK293): Toxic
11 | CCCCn1c(=O)c2ccccc2c2cc(C(O)(C(F)(F)F)C(F)(F)F)c(OC)cc21 | 9.2 µM | 7.8 µM | 10.9 µM | 
12 | CCCCn1c(=O)c2ccccc2c2cc(C(O)(C(F)(F)F)C(F)(F)F)cc(OC)c21 | > 10 µM | > 10 µM | > 10 µM | 
13 | CCCCn1c(=O)c2cc(OC)ccc2c2cc(C(O)(C(F)(F)F)C(F)(F)F)ccc21 |  |  |  | Activity (HEK293): Toxic
14 | CCCCn1c(=O)c2ccc(OC)cc2c2cc(C(O)(C(F)(F)F)C(F)(F)F)ccc21 | 1.1 µM | 5.3 µM | 7.7 µM | 
15 | CCCCn1c(=O)c2cccc(OC)c2c2cc(C(O)(C(F)(F)F)C(F)(F)F)ccc21 | 5.7 µM | 9.1 µM | 7.5 µM | 
16 | Cn1c(=O)c2ccccc2c2cc(C(O)(C(F)(F)F)C(F)(F)F)ccc21 | > 20 µM | > 20 µM | > 20 µM | 
17 | CC(=O)Nc1nc(C)c(S(=O)(=O)Nc2ccc(C(O)(C(F)(F)F)C(F)(F)F)cc2)s1 |  |  |  | IC50 ([4]; hek293): Not Active; IC50 ([5]; hek293): Not Active; EC50 [6]: Not Active; EC50 [7]: Not Active
18 | O=c1[nH]c2ccc(C(O)(C(F)(F)F)C(F)(F)F)cc2c2ccccc12 | > 20 µM | > 20 µM | > 20 µM | 
19 | CCCn1c(=O)c2ccccc2c2cc(C(O)(C(F)(F)F)C(F)(F)F)ccc21 | 4.2 µM | 10.8 µM | 8.2 µM | 
20 | CCCCCCCCCCCCc1ccc2c(c1)c1ccccc1c(=O)n2CCCC |  |  |  | IC50 ([1]; hek293): Not Active; IC50 ([2]; hek293): Not Active; IC50 ([3]; hek293): Not Active
21 | CCCCn1c(=O)c2ccc(Cl)cc2c2cc(C(O)(C(F)(F)F)C(F)(F)F)ccc21 |  |  |  | IC50 ([4]; read-out: IC50): > 3 µM; IC50 ([5]; read-out: IC50): 0.68 µM; EC50 [6]: Not Active; EC50 [7]: Not Active
22 | O=S(=O)(c1ccccc1)N(CC(F)(F)F)c1ccc(C(O)(C(F)(F)F)C(F)(F)F)cc1 [T091317] |  |  |  | IC50 [8]: Not Active; IC50 [9]: Not Active; IC50 ([3]; hek293): Not Active
